# Experimental data reported in patent US7381749B2, “Sulfonamides as inhibitors of histone deacetylase for the treatment of disease” (Kalypsys, Inc., priority 2004, dated 2008).
# Assays:
# HDAC in cells = assay: Cellular IC50 (cellular assays: histone hyperacetylation cytoblot / differential cytotoxicity); assay type: cell-based; conditions: transformed cell lines (e.g. HeLa, A549, MCF-7); cell line not specified
# Method: These two secondary assays evaluates a compound's ability to inhibit HDAC in cells by measuring cellular histone acetylation levels. The cytoblot facilitates quantitative EC50 information for cellular HDAC inhibition. Transformed cell lines (e.g. HeLa, A549, MCF-7) are cultured under standard media and culture conditions prior to plating.
# Cells (approx. 2,500/well) are allowed to adhere 10-24 hours to wells of a 384-well Greiner PS assay plate in media containing 1-5% serum. Cells are treated with appropriate compound and specific concentrations for 0 to 24 hours. Cells are washed once with PBS (60 ul) and then fixed (95% ethanol, 5% acetic acid or 2% PFA) for 1 minute at RT (30 ul). Cells are blocked with 1% BSA for 1 hour and washed and stained with antibody (e.g. anti-Acetylated Histone H3, Upstate Biotechnology), followed by washing and incubation with an appropriate secondary antibody conjugated to HRP or fluorophore. For luminescence assays, signal is generated using Luminol substrate (Santa Cruz Biotechnology) and detected using an Aquest plate reader (Molecular Devices).
# Differential Cytotoxicity Assay:
# HDAC inhibitors display differential cytotoxicity toward certain transformed cell lines. Cells are cultured according to standard ATCC recommended conditions that are appropriate to each cell type. Compounds were tested for their ability to kill different cell types (normal and transformed) using the ATPlite luminescence ATP detection assay system (Perkin Elmer). Assays are run in either 384-well or 1536-well Greiner PS plates. Cells (30 ul or 5 ul, respectively) are dispensed using either multichannel pipette for 384-well plates, or proprietary Kalypsys bulk liquid dispenser for 1536-well plates. Compounds added using proprietary pin-transfer device (500 nL or 5 nL) and incubated 5 to 30 hours prior to analysis. Luminescence is measured using Aquest plate reader (Molecular Devices).
# HDAC = assay: In vitro HDAC-inhibition assay (Fluor de Lys fluorescent substrate); assay type: biochemical; conditions: HDAC enzyme source (e.g. partially purified nuclear extract or immunopurified HDAC complexes)
# Method: In vitro HDAC-Inhibition Assay:
# This assay measures a compound's ability to inhibit acetyl-lysine deacetylation in vitro and was used as both a primary screening method as well as for IC50 determinations of confirmed inhibitors. The assay is performed in vitro using an HDAC enzyme source (e.g. partially purified nuclear extract or immunopurified HDAC complexes) and a proprietary fluorescent substrate/developer system (HDAC Quantizyme Fluor de Lys Fluorescent Activity Assay, BIOMOL). The assay is run in 1,536-well Greiner white-bottom plates using the following volumes and order of addition: • Step 1: Enzyme (2.5 ul) source added to plate (from refrigerated container) • Step 2: Compounds (50 nl) added with pin transfer device • Step 3: Fluor de Lys (2.5 ul) substrate added, incubate at RT, 30 minutes • Step 4: Developer (5 ul) solution is added (containing TSA), to stop reaction • Step 5: Plate Reader—data collection • The deacetylated fluorophore is excited with 360 nm light and the emitted light (460 nm) is detected on an automated fluorometric plate reader (Aquest, Molecular Devices).
Compound,IC50 (HDAC) [nM],IC50 (HDAC in cells) [nM]
CC(=O)SCC(=O)c1ccc(NS(=O)(=O)c2c(C)noc2C)cc1 [Example 29],< 1000,< 10000
"CC(=O)SCC(=O)c1ccc(NS(=O)(=O)c2cc(C)cc(C)c2)cc1 [Example 23, Thioacetic acid 2-[4-(3,5-dimethyl-benzenesulfonylamino)-phenyl]-2-oxo-ethyl ester]",< 1000,< 10000
CC(=O)SCC(=O)c1ccc(NS(=O)(=O)c2sc(C)nc2C)cc1 [Example 30],< 1000,< 1000
"NCC(=O)SCC(=O)c1ccc(NS(=O)(=O)c2ccc(OC(F)(F)F)cc2)cc1 [Example 11, Amino-thioacetic acid S-{2-oxo-2-[4-(4-trifluoromethoxy-benzenesulfonylamino)-phenyl]-ethyl}ester]",< 1000,–
"CC(=O)SCC(=O)c1ccc(N(C)S(=O)(=O)c2ccc(OC(F)(F)F)cc2)cc1 [Example 12, Thioacetic acid S-(2-{4-[methyl-(4-trifluoromethoxy-benzenesulfonyl)-amino]phenyl}-2-oxo-ethyl)ester]",–,< 10000
"CC(=O)SCC(=O)c1ccc(NS(=O)(=O)c2cccc(C(F)(F)F)c2)cc1 [Example 17, Thioacetic acid S-{2-oxo-2-[4-(3-trifluoromethyl-benzenesulfonylamino)-phenyl]-ethyl}ester]",< 1000,< 10000
"COc1cccc(S(=O)(=O)Nc2ccc(C(=O)CSC(C)=O)cc2)c1 [Example 21, Thioacetic acid S-{2-[4-(3-methoxy-benzenesulfonylamino)-phenyl]-2-oxo-ethyl}ester]",< 1000,< 1000
"COC(=O)SCC(=O)c1ccc(NS(=O)(=O)c2ccc(OC(F)(F)F)cc2)cc1 [Example 08, Thiocarbonic acid O-methyl ester S-{2-oxo-2-[4-(4-trifluoromethoxy-benzenesulfonylamino)-phenyl]-ethyl}ester]",< 10000,< 1000
"CC(=O)SCC(=O)c1ccc(NS(=O)(=O)c2cn(C)c(C)n2)cc1 [Example 24, Thioacetic acid S-{2-[4-(1,2-dimethyl-1H-imidazole-4-sulfonylamino)-phenyl]-2-oxo-ethyl}ester]",< 1000,< 10000
"CC(=O)SCC(=O)c1ccc(NS(=O)(=O)c2ccc(Cl)c(C(F)(F)F)c2)cc1 [Example 20, Thioacetic acid S-{2-[4-(4-chloro-3-trifluoromethyl-benzenesulfonylamino)-phenyl]-2-oxo-ethyl}ester]",< 1000,< 1000
"CCS(=O)(=O)Nc1ccc(C(=O)CSC(C)=O)cc1 [Example 22, Thioacetic acid S-[2-(4-ethanesulfonylamino-phenyl)-2-oxo-ethyl]ester]",< 1000,< 10000
CC(=O)SCC(=O)c1ccc(NS(=O)(=O)c2cc(C)oc2C)cc1 [Example 31],–,< 10000
CN(C)c1ccc(C(=O)SCC(=O)c2ccc(NS(=O)(=O)c3ccc(OC(F)(F)F)cc3)cc2)cc1 [Example 07],< 1000,< 10000
"O=C(CSC(=O)c1ccccn1)c1ccc(NS(=O)(=O)c2ccc(OC(F)(F)F)cc2)cc1 [Example 09, Pyridine-2-carbothioic acid S-{2-oxo-2-[4-(4-trifluoromethoxy-benzenesulfonylamino)-phenyl]-ethyl}ester]",< 1000,< 1000
"CC(=O)SCC(=O)c1ccc(NS(=O)(=O)c2ccc(OC(F)(F)F)cc2)c(F)c1 [Example 15, Thioacetic acid S-{2-[3-fluoro-4-(4-trifluoromethoxy-benzenesulfonylamino)-phenyl]-2-oxo-ethyl}ester]",< 1000,–
"O=C(CSC(=O)c1ccco1)c1ccc(NS(=O)(=O)c2ccc(OC(F)(F)F)cc2)cc1 [Example 04, Furan-2-carbothioic acid S-{2-oxo-2-[4-(4-trifluoromethoxy-benzenesulfonylamino)-phenyl]-ethyl}ester]",< 1000,–
"CC(=O)SCC(=O)c1ccc(S(=O)(=O)Nc2ccc(OC(F)(F)F)cc2)cc1 [Example 45, Thioacetic acid S-{2-oxo-2-[4-(4-trifluoromethoxy-phenylsulfamoyl)-phenyl]-ethyl}ester]",–,< 10000
"CC(=O)SCC(=O)c1ccc(NS(=O)(=O)C(C)C)cc1 [Example 25, Thioacetic acid S-{2-oxo-2-[4-(propane-2-sulfonylamino)-phenyl]-ethyl}ester]",< 1000,–
"CC(=O)Oc1ccccc1C(=O)SCC(=O)c1ccc(NS(=O)(=O)c2ccc(OC(F)(F)F)cc2)cc1 [Example 06, Acetic acid 2-{2-oxo-2-[4-(4-trifluoromethoxy-benzenesulfonylamino)-phenyl]-ethylsulfanylcarbonyl}-phenyl ester]",–,< 1000
"O=C(CSC(=O)c1cccnc1)c1ccc(NS(=O)(=O)c2ccc(OC(F)(F)F)cc2)cc1 [Example 02, Thionicotinic acid S-{2-oxo-2-[4-(4-trifluorometlioxy-benzenesulfonylamino)-phenyl]-ethyl}ester]",–,< 10000
"CC(=O)SCC(=O)c1ccc(N(C(C)C)S(=O)(=O)c2ccc(OC(F)(F)F)cc2)cc1 [Example 13, Thioacetic acid S-(2-{4-[isopropyl-(4-trifluoromethoxy-benzenesulfonyl)-amino]-phenyl}-2-oxo-ethyl)ester]",< 10000,–

# Now from value to compound, other results behind:
IC50 (HDAC) [nM],Compound,IC50 (HDAC in cells) [nM]
< 1000,CC(=O)SCC(=O)c1cccc(NS(=O)(=O)c2ccc(OC(F)(F)F)cc2)c1 [Example 39],< 1000
< 1000,CC(=O)SCC(=O)c1ccc(NS(=O)(=O)c2ccccc2F)cc1 [Example 35],< 1000
< 10000,CC(=O)SCC(=O)c1ccccc1NS(=O)(=O)c1ccc(OC(F)(F)F)cc1 [Example 40],> 50000
< 1000,"COc1cccc(S(=O)(=O)Nc2ccc(C(=O)CSC(C)=O)cn2)c1 [Example 50, Thioacetic acid S-{2-[6-(3-methoxy-benzenesulfonylamino)-pyridin-3-yl]-2-oxo-ethyl}ester]",< 1000
< 1000,CC(=O)SCC(=O)c1ccc(NS(=O)(=O)c2ccc(F)cc2)cc1 [Example 34],< 1000
< 1000,CC(=O)SCC(=O)c1ccc(NS(=O)(=O)c2ccccc2)cc1 [Example 33],< 10000
< 1000,"CC(=O)SCC(=O)c1ccc(NS(=O)(=O)c2ccccn2)cc1 [Example 51, Thioacetic acid S-{2-oxo-2-[4-(pyridine-2-sulfonylamino)-phenyl]-ethyl}ester]",< 1000
< 1000,"CC(=O)SCC(=O)c1ccc2c(c1)CCN2S(=O)(=O)c1ccccc1 [Example 48, Thioacetic acid S-[2-(1-benzenesulfonyl-2,3-dihydro-1H-indol-5-yl)-2-oxo-ethyl]ester]",< 10000
< 1000,CC(=O)SCC(=O)c1ccc(NS(=O)(=O)c2ccccc2Cl)cc1 [Example 38],< 1000
< 1000,CC(=O)SCC(=O)c1ccc(NS(=O)(=O)c2ccc(Cl)cc2)cc1 [Example 36],< 1000
< 1000,"CC(=O)SCC(=O)c1ccc2c(c1)CCN2S(=O)(=O)c1ccccn1 [Example 53, Thioacetic acid S-{2-oxo-2-[1-(pyridine-2-sulfonyl)-2,3-dihydro-1H-indol-5-yl]-ethyl}ester]",< 1000
< 50000,CC(=O)SCC(=O)c1sc(NS(=O)(=O)c2ccc(OC(F)(F)F)cc2)nc1C [Example 42],–
< 1000,CC(=O)SCC(=O)c1ccc(NS(=O)(=O)c2cccc(OC(F)(F)F)c2)cc1 [Example 41],< 1000
< 1000,CC(=O)SCC(=O)c1ccc(NS(=O)(=O)c2cccc(F)c2)cc1 [Example 46],< 1000
< 1000,"CC(=O)SCC(=O)c1ccc(NS(=O)(=O)c2cccnc2)cc1 [Example 52, Thioacetic acid S-{2-oxo-2-[4-(pyridine-3-sulfonylamino)-phenyl]-ethyl}ester]",< 10000
< 50000,"CC(=O)SCC(=O)c1sc(NS(=O)(=O)c2ccc(Cl)c(Cl)c2)nc1C [Example 43, Thioacetic acid-S-{2-[2-(3,4-Dichlorobenzenesulfonylamino)-4-methyl-thiazol-5-yl]-2-oxo-ethyl}-ester]",–
